One compound from patent US20240238310A1, “MODULATION OF SEX STEROID HORMONE PRODUCTION AND ACTIVITY FOR TREATING AND PREVENTING HERNIAS” (Northwestern University, priority 2020, published 2024) can be followed below.

The experiment deals with Arom^hum mice. Put plainly: Prevention of inguinal hernia, LAMT fibrosis and atrophy in Arom^hum mice (treatment started before hernia formation). Particulars: Arom^hum mice. Type of experiment: in vivo, mouse. The text has this: Increased LAMT estrogen levels are associated with LAMT fibrosis, myocyte atrophy, and inguinal hernia development; aromatase inhibitor prevents hernia formation in Arom^hum mice. […] None of the WT littermates (n=32) developed hernia.
In the mouse, the scrotum is connected to the peritoneal cavity with a narrow funicular (or inguinal) canal, whose walls are composed of LAMT. Structurally normal LAMT is essential to maintain the tone of this canal and prevents herniation of bowel. LAMT is the critical site affected by E2 excess (FIGS. 2, 5, 6). As in many other tissues, stromal cells intimately interact with parenchymal cells (myocytes) in UAMT and LAMT (FIG. 6). […] Administration of the aromatase inhibitor letrozole started at 3 weeks of age for 12 weeks prevented LAMT atrophy, fibrosis and herniation in all (10 out of 10) treated Arom^hum mice (FIG. 6B).
Experiment 1a1: Does aromatase inhibition arrest or reverse LAMT fibrosis, atrophy, and hernia in male Arom^hum mice? […] The hernias will be classified as mild, early moderate, late moderate and severe if the bulging area through muscle tissue is <100 mm^2 (˜4 weeks), 100-150 mm^2 (˜6 weeks), 150-200 mm^2 (˜8 weeks), or >200 mm^2 (˜10 weeks), respectively. First, we will treat Arom^hum mice showing mild hernias with letrozole (SC 10 μg/day release pellet) or vehicle starting at 4 weeks of age for 12 weeks^63. We will assess whether muscle fibrosis, atrophy, and hernia can be arrested or reversed in mildly (<100 mm^2) affected animals. If early letrozole treatment can arrest mild muscle fibrosis, we will delay the initiation of treatment to 6, 8, or 10 weeks of age to determine whether letrozole can arrest or reverse the growth of the early moderate (6 weeks), late moderate (8 weeks) or severe hernia (10 weeks). Hernia development will be monitored by visual inspection twice a week for 12 weeks after letrozole administration and will be reported as hernia incidence using Kaplan-Meier curve analysis. The length and width of the observed hernias will be measured to calculate the surface area (length×width). After completion of the treatment, the mice will be dissected, and LAMT, UAMT (control), and serum will be collected. One hundred mg of frozen muscle tissue will be obtained to measure tissue estrogen levels. Circulating and tissue (LAMT and UAMT) E2 levels will be measured at the IIT Research Institute by Dr. Miguel Muzzio (see letter) using LC-MS^2. We will use immunoblotting and IHC to determine ERα expression in LAMT and UAMT.
This finding was published in PNAS in Oct., 2018. […] We treated Arom^hum mice with fulvestrant for 12 weeks starting at the age of 4 weeks (before hernia formation). As expected, placebo-treated Arom^hum mice developed scrotal hernias.

Structures are written as SMILES.

With `C[C@]12CC[C@@H]3c4ccc(O)cc4C[C@@H](CCCCCCCCC[S+]([O-])CCCC(F)(F)C(F)(F)F)[C@H]3[C@@H]1CC[C@@H]2O` (stereo partly drawn) [fulvestrant], the “development of LAMT fibrosis (fibrotic area, Masson's trichrome)” value (4-week-old mice treated for 12 weeks, FIGS. 15C and D) was “rescues lower abdominal muscle tissue (LAMT) fibrosis and myocyte atrophy”. Moreover, the “myofiber atrophy (myofiber cross-sectional area)” value (4-week-old mice treated for 12 weeks, FIGS. 15C and E) was “completely prevented myofiber atrophy”. Besides, the hernia formation result (fulvestrant for 12 weeks starting at the age of 4 weeks (before hernia formation)) is “completely prevented by fulvestrant administration”.
